Earlier results, collected in patent publication US5030638A, “Method of antiviral enhancement” (priority 1990, dated 1991).

Experiments:
trimming glucosidase I = conditions: Hettkamp et al.; cited from earlier work
trimming glucosidase II = conditions: Hettkamp et al.; cited from earlier work
HIV = conditions: literature; cited from earlier work
α-glycosidase = conditions: literature; cited from earlier work

Row | SMILES | effect on trimming glucosidase I (trimming glucosidase I) | effect on trimming glucosidase II (trimming glucosidase II) | HIV inhibitory / antiviral activity (HIV) | α-glycosidase inhibitory activity (α-glycosidase)
1 | CCCCCCCCCCCCN1C[C@H](O)[C@@H](O)[C@H](O)[C@H]1CO [N-dodecyl-1-deoxynojirimycin] | to a lesser degree than deoxynojirimycin or N-methyl-deoxynojirimycin | to a lesser degree than deoxynojirimycin or N-methyl-deoxynojirimycin |  | 
2 | OC[C@H]1NCC[C@@H](O)[C@@H]1O [fagomine] |  |  | no HIV inhibition was observed | known to have α-glycosidase inhibitory activity
